The results in this text go back to US20260151391A1, “TREATMENT OF MITOCHONDRIAL DISEASES WITH sGC STIMULATORS” (Tisento Therapeutics Inc., priority 2022, published 2026).

The subject of series [1] is memory disruption induced by MK-801 in male Long Evans rats. Nature of the series: Novel Object Recognition (NOR) test, memory disruption induced by MK-801. To be noted: any dose tested, oral. It is filed as in vivo, rat. As to the method:
In the present study, a memory saving model was used. MK-801 (Dizocilpine), an uncompetitive antagonist of the NMDA receptor was used to cause deficit of recognition memory. sGC stimulators were evaluated for their efficacy to prevent memory impairment induced by MK-801.
Adult male Long-Evans rats (275-299 gram at arrival from Envigo, Indianapolis, IN) were used in this study. Rats were placed in the experimental rooms and assigned unique identification numbers (tail marks). Rats were housed 2 per cage in polycarbonate cages with filter tops and acclimated for at least 7 days prior to testing. […]
NOR test was conducted in an open-field arena (40×40 cm) placed in a sound-attenuated room under dimmed lighting. […] All training and testing trials were video-taped and scored by an observer blind to treatments.
On Days 1 and 2, rats were allowed to freely explore the arena (no objects inside) for a 5-minute habituation period. […] Each rat was placed in the arena facing the same direction at the same position, and the time spent actively exploring the objects during a 3-minute training period (T1) was recorded. […] Each rat was placed back into the test arena in the presence of one familiar object and one novel object for 5 minutes, and the time spent exploring both objects was recorded. […]

The nature of series [2]: Non-human primate CSF pharmacokinetics (Study B), cisterna magna versus lumbar sampling. The class given is in vivo, Macaca fascicularis. To be noted: for Kp uu at 3 h / Kp uu at 24 h: female, Cynomolgus macaque, cynomolgus monkey, read-out: geomean ratio of CSF concentration to unbound concentration in plasma (Kp,uu). From the text: The objective of this study was to investigate the pharmacokinetics of Compound 1-14 after administration of a single […] bolus or oral gavage dose to cynomolgus monkeys on Day 1 and to evaluate differences in pharmacokinetic values when comparing CSF collected at the cisterna magna (as in Example 10A) versus lumbar locations. [table] • Species: Macaca fascicularis • Strain: Cynomolgus macaque • Number of Females: 4 • Age: Adult • Weight: 2.5-4 kg Single doses of Compound I-14 were administered intravenously as a bolus injection of a solution at 0.15 mg/kg and orally by gavage as a suspension at 0.5 mg/kg to a group of four female cynomolgus monkeys in a crossover design. Plasma samples were collected at 0.25 (15 min), 0.5 (30 min), 1, 2, 3, 6, 8, 12, 24, 32, and 48 h following the IV and PO doses. CSF samples were collected at 3 and 24 h for all animals from the cisterna magna in groups 1 and 2 and the lumbar from groups 3 and 4. Sample extracts were prepared by protein precipitation and Compound I-14 concentrations were measured using LC-MS/MS. Pharmacokinetic parameters were calculated.

Where [3] appears, read: CSF (cisterna magna) / unbound plasma, IV bolus 0.15 mg/kg, cisterna magna sampling.
Where [4] appears, read: CSF (cisterna magna) / unbound plasma, oral gavage 0.5 mg/kg, cisterna magna sampling.
Setting [5] is: CSF (lumbar) / unbound plasma, IV bolus 0.15 mg/kg, lumbar sampling.
[6] abbreviates: CSF (lumbar) / unbound plasma, oral gavage 0.5 mg/kg, lumbar sampling.

The structures appear in SMILES notation. Where two headings read alike, the source gives them in different places.

Turning to `Cc1cc(F)c(Cc2nc(-c3ncc(F)c(O)n3)cn3ccnc23)cc1F` [Compound I-14, 5-fluoro-2-(8-(2,5-difluoro-4-methylbenzyl)imidazo[1,2-a]pyrazin-6-yl)pyrimidin-4-ol], in series [1], the “obvious side effects in NOR study” value is “None of the rats in this study showed obvious side effects”. Moreover, the “presence of compound in CSF” value in series [2] (IV and PO administration, cisterna magna and lumbar sampling) is “observed in the CSF at 3 and 24 hours”. In addition, the Kp uu at 3 h in series [2] (setting [3]), in series [2] (setting [4]), in series [2] (setting [5]) and in series [2] (setting [6]) was 2 to 3 throughout. Moreover, the Kp uu at 24 h in series [2] (setting [3]) was 1 to 2; in series [2] (setting [4]), 2 to 3; in series [2] (setting [5]), 1 to 2; in series [2] (setting [6]), 2 to 3.
